Patent US20240315963A1, “COMPOSITIONS AND METHODS FOR EXTENDED DELIVERY OF API TO TREAT DISEASES OF THE EYE” (priority 2023, published 2024)

Assay: API elution study from the gel, buffer replaced daily, HPLC
Assay type: physicochemical
Details: 50 mg API in 4-Arm PEG-10K-SG/4-arm-PEG-10K-SAS/4-arm PEG-20K-NH2 gel; 37° C., 2 ml 7.4 buffer replaced daily
Experimental: A mold piece manufactured per example 5 is placed in a 2 ml buffered saline at 37° C. water bath. The entire 2 ml saline is removed daily from the sample and a new 2 ml saline is added. The process is repeated daily till the device is completely dissolved. The saline sample with drug is analyzed by HPLC, GC to establish the elution rate.
Example 22. Powder mixtures of 4-Arm PEG-10K-SG (12.5 mg) and 4-arm-PEG-10K-SAS (12.5±0.5 mg), 4-arm PEG-20K-NH 2 (25±0.5 mg) were placed in a 10 ml syringe. To this powder was added 50 mg corticosteroid TMC.

amount eluted each day: about 54 micro grams
SMILES: C[C@]12C=CC(=O)C=C1CC[C@H]1[C@@H]3C[C@@H](O)[C@](O)(C(=O)CO)[C@@]3(C)C[C@H](O)[C@@]12F [TMC]
